The text below walks through data of patent US7361263B2, “Water treatment apparatus and method” (Sanyo Electric Co., Ltd., priority 2002, dated 2008).

In data set [1] the test system is Escherichia coli (coliform bacillus) NIHJ JC-2. In words: Test of antibacterial activity of epirubicin hydrochloride (MIC, small amount broth dilution). It is filed as cell-based. The following applies: read-out: minimum inhibitory concentration (MIC). As for the experimental part: (§1) The pharmaceutical stock solution disclosed in the standard method was replaced with the samples of the present example for testing. As the culture medium for measuring sensitivity, Cation Supplemented Mueller-Hinton Broth: CSMHB (obtained from EIKEN CHEMICAL CO., LTD.) was employed. This CSMHB was poured 90 μl each into a U-shaped bottom 96-well microplate. Samples taken 0, 2, 4 and 6 hours from initiation of electrolysis described in the above 2 were prepared. A diluted solution of respective samples was prepared in accordance with the standard method. […] The bacilli used in the present example were identical to the two types of bacillus employed in Example 1, i.e. Staphylococcus aureus (staphylococcus bacteria) FDA […] and Escherichia coli (coliform bacillus) NIHJ JC-2. […] This solution was inoculated approximately 0.005 ml in each well of the plate set forth above within 15 minutes from preparation of the solution including bacillus. A medium not containing the agent was poured into 1-2-wells as the control of the development of bacillus. Cultivation was conducted for 18-24 hours at 35° C.

In data set [2] the test system is Staphylococcus aureus (staphylococcus bacteria) FDA 209P. Described as above. It is filed as cell-based. The following applies: for MIC: Staphylococcus aureus, FDA209P, read-out: minimum inhibitory concentration (MIC). As for the experimental part: as §1
Data set [3] can be described thus: Cytotoxicity (CC50) test, WST-8. The following applies: human; electrolyzing time 0 hours; Molt-4 cells, cultured three days. The format is cell-based, human. From the text:
For the measurement of the number of cells, tetrazolium salt WST-8 (Cell Counting Kit-8 available as a kit) was employed as the chromophone. The basic principle of the cytotoxicity (CC50) test is set forth below. WST-8 is reduced by intracellular dehydrogenation enzyme to produce soluble formazan. Since the number of cells and the amount of generated formazan is linearly proportional, the number of cells can be readily measured by directly measuring the absorbancy of formazan at 450 nm. The specific procedure for measurement is set forth below. 180 μl of a culture medium was introduced into each of the wells in the range of rows A-D and columns 3-10 in a 96-well flat microtiter plate for diluting the agent. 240 μl of the sample taken at 0 hours from initiation of electrolysis was added to the well of row A, column 2 in the microtiter plate. 240 μl of the sample taken 2 hours from initiation of electrolysis was added to the well of row B, column 2. 240 μl of the sample taken 4 hours from initiation of electrolysis was added to the well of row C, column 2. 240 μl of the sample taken 6 hours from initiation of electrolysis was added to the well of row D, column 2. To produce respective columns of sample dilutions, samples of 60 μl each was taken from the above-described samples of 240 μl. These samples of 60 μl were sequentially added to the right side well to be sufficiently pipeted. This was conducted up to column 10. Two of U-bottom 96-well microtiter plates for cultivation were prepared, and 200 μl of PBS was applied to all the side-most wells. 100 μl of culture medium was introduced into each of the wells of rows B-G, columns 2-9. 150 μl of culture medium was introduced into the wells of columns 10 and 11. Then, 50 μl of cell suspension solution prepared to 5×10^6 cell/ml was introduced into each of the wells of rows B-G, columns 2-9 and column 11. The wells of column 10 were absent of cells. […] Then, the O.D. was measured at 450 nm and 620 nm using a microplate reader.

Data set [4] is described as follows: Mutagenicity test (umu-test). The format is cell-based.
Procedure: The test was conducted according to the instruction manual included in the kit of “Umu-test” from Japan Immunoresearch Laboratories Co., Ltd.
The test system of data set [5] is Escherichia coli (coliform bacillus) NIHJ JC-2. In words: Sterilizing activity test of glutaral (MIC, small amount broth dilution, 60 minutes contact). It is filed as cell-based. On the procedure:
(§2) The sterilizing activity of glutaral was evaluated based on MIC measurement by a small amount broth dilution method, which is the standard method of the Japanese Society of Chemotherapy. In the present example, the presence of bacillus by the bacterial number of survivals after a solution including bacillus was brought into contact with glutaral for a predetermined period of time (60 minutes) taking into account the fact that sterilization is neutralized when glutaral is mixed with the culture medium. The pharmaceutical stock solution disclosed in the standard method was replaced with the sample of the present example for testing. As the culture medium for measuring sensitivity, Cation Supplemented Mueller-Hinton Broth: CSMHB (obtained from EIKEN CHEMICAL CO., LTD.) was used. This CSMHB was dividedly-poured 90 μl each into a U-shaped bottom 96-well microplate. This is called Plate 1. The samples taken 0, 2, 4 and 6 hours from initiation of electrolysis described in the above 1. were prepared. In accordance with the method of [Example 1] recited in the additional rule of the standard method, a diluted solution of sterilized phosphate buffer (PBS) was produced for each sample. In the present example, the test was carried out at 1⁄2 the scale cited in the standard method. The containing amount of glutaral in the first tube was approximately 1000 μg/ml titer. The PBS dilution was dividedly-poured 0.1 ml each into another U-shaped microplate. This is called plate 2. In the present example, Staphylococcus aureus (staphylococcus bacteria) […] and Escherichia coli (coliform bacillus) NIHJ JC-2 strain were employed as the bacilli for testing sensitivity. The bacillus to be tested on an agar media cultured overnight was suspended to 0.5 Mc Farland (approximately 10^8 CFU/ml) and diluted by ten times (approximately 10^7 CFU/ml) with sterilized physiologic saline as the solution including bacillus for inoculation. The water to be treated and the solution including bacillus were inoculated and mixed 0.01 ml each in each well of Plate 1 within 15 minutes from preparation of the solution including bacillus. In Plate 1, a culture medium not containing the agent was poured into 1-2 wells as the control of growth of bacillus. At an elapse of 60 minutes from the mixing, 10 μl of the solution of plate 2 was each introduced into the same well of Plate 1. Then, cultivation was conducted for 18 to 24 hours at 35° C. The criteria of Positive Growth (+) and Inhibited Growth (-) after cultivation was determined as set forth below. Positive growth (+) was accepted when cloudiness was identified by the naked eye or a precipitate of at least 1 mm in diameter, or when two or more masses of precipitate, even though the diameter thereof is below 1 mm, was identified. Inhibited growth (-) was accepted when cloudiness by the naked eye was not identified, or when only one precipitate with a diameter below 1 mm was identified.

The test system of data set [6] is Staphylococcus aureus (staphylococcus bacteria) 209P. Described as above. It is filed as cell-based. On the procedure: as §2
Data set [7] can be described thus: Gas chromatograph evaluation of decomposition of glutaral by electrolysis. Particulars: six hours from initiation of electrolysis. It is filed as physicochemical.
Setting [8] is: 6 hours from initiation of electrolysis, calculated.
Setting [9] is: electrolysis for 6 hours or more, from formula value.

Values after ≈ are worked out from the molar mass of the structure shown. Structures can show the parent of a compound that is named as a salt. Where two headings read alike, the source gives them in different places. Bounds are passed on as bounds.

As a reminder, the CC50 is the concentration giving 50% cytotoxicity. A higher CC50 goes with better tolerance by the cells. Regarding `COc1cccc2c1C(=O)c1c(O)c3c(c(O)c1C2=O)C[C@@](O)(C(=O)CO)C[C@@H]3O[C@H]1C[C@H](N)[C@@H](O)[C@H](C)O1` [epirubicin hydrochloride], the MIC in data set [1] (NIHJJC2, electrolyzing time 0 hours) is over 200 µg/mL; in data set [1] (NIHJJC2, electrolyzing time 2 hours), over 200 µg/mL; in data set [1] (NIHJJC2, electrolyzing time 4 hours) it was over 200 µg/mL; in data set [1] (NIHJJC2, electrolyzing time 6 hours), over 200 µg/mL; in data set [2] (electrolyzing time 0 hours), 1.56 µg/mL; in data set [2] (electrolyzing time 2 hours), 25 µg/mL. Further, the MIC in data set [2] (electrolyzing time 4 hours) and in data set [2] (electrolyzing time 6 hours) was over 200 µg/mL throughout. The results for the “relative MIC value (MIC at 0 hour set as 1)” value in data set [2] (electrolyzing time 0 hours) and in data set [2] (electrolyzing time 2 hours) were 1 and 1/16, respectively. The molecule also returned a CC50 at 3 days in data set [3] of 0.066 µg/mL. Moreover, the “concentration of the tube showing the mutagenicity induction level (fifth tube)” value in data set [4] (0 hours from initiation of electrolysis) was found to be 24.7 μ/ml. The “umu-test absorbancy of the first tube (O.D.620 nm)” value in data set [4] (at all of 0, 2, 4 and 6 hours from initiation of electrolysis) is listed as “exceeded 0.2”. For the same molecule, the “umu-test result (positivity / negativity)” value in data set [4] (at all of 0, 2, 4 and 6 hours from initiation of electrolysis, cut off value approximately 0.18) is “positivity”. Further, the “mutagenicity after the electrolytic process relative to before” value in data set [4] (lines diluted by three times, 1/3^4) is on record as 1/81.
Take `O=CCCCC=O` [glutaral]: the “minimum inhibitor concentration obtained from approximation formula 2” value in data set [5] (setting [8]) was 4600 µg/mL (≈ 45.9 mM). In addition, the “minimum inhibitor concentration relative to before electrolysis” value in data set [5] (setting [9]) is on record as “approximately 1/37”; in data set [6] (setting [9]) it was “approximately 1/18”. The minimum inhibitor concentration was 31.25 µg/mL (≈ 0.312 mM) in data set [5] (electrolyzing time 0 hours); 125 µg/mL (≈ 1.25 mM) in data set [5] (electrolyzing time 2 hours); over 1000 µg/mL in data set [5] (electrolyzing time 4 hours); over 1000 µg/mL in data set [5] (electrolyzing time 6 hours); 62.5 µg/mL (≈ 0.624 mM) in data set [6] (electrolyzing time 0 hours); 125 µg/mL (≈ 1.25 mM) in data set [6] (electrolyzing time 2 hours). The minimum inhibitor concentration was 500 µg/mL (≈ 4.99 mM) in data set [6] (electrolyzing time 4 hours) and over 1000 µg/mL in data set [6] (electrolyzing time 6 hours). The “relative value of the minimum inhibitor concentration (when preceding electrolysis is 1)” value in data set [5] (electrolyzing time 0 hours) is on record as 1; in data set [5] (electrolyzing time 2 hours), “¼”; in data set [5] (electrolyzing time 4 hours) it was < 1/32; in data set [5] (electrolyzing time 6 hours), < 1/32; in data set [6] (electrolyzing time 0 hours), 1; in data set [6] (electrolyzing time 2 hours), “½”. For the same molecule, the “relative value of the minimum inhibitor concentration (when preceding electrolysis is 1)” value in data set [6] (electrolyzing time 4 hours) is listed as “⅛”; in data set [6] (electrolyzing time 6 hours), < 1/16. Besides, in data set [6] (setting [8]), the “minimum inhibitor concentration obtained from approximation formula 1” value was 1150 µg/mL (≈ 11.5 mM). The “GC peak area (RT 3.14 minutes) relative to sample of 0 hours” value in data set [7] is recorded as 1/25.
